From the supplement of paper PMC13380429

Columns and labels:
HepG2 [1] = test: drug sensitivity score (DSS) for viability; higher = more toxic; extreme values may be limits of the assay; conditions: 72 h
Vero E6 [2] = test: as above; conditions: 72 h
Caco-2 [3] = test: as above; conditions: 72 h
Calu-3 [4] = test: as above; conditions: 72 h
U2OS [5] = test: as above; conditions: 72 h
[6] = system: A549-ACE2 infected with SARS-CoV-2; test: SARS-CoV-2 infection rate relative to DMSO; higher = more infection; conditions: 24 h
A549-ACE2 [7] = test: phospholipidosis EC50; higher = less potent phospholipidosis inducer; conditions: 24 h
A549-ACE2 [8] = test: drug-induced phospholipidosis relative to tamoxifen; higher = more phospholipidosis
HepG2 [9] = test: cell viability relative to DMSO; higher = less toxic; conditions: 72 h
Vero E6 [10] = test: as above; conditions: 72 h
Caco-2 [11] = test: as above; conditions: 72 h
Calu-3 [12] = test: as above; conditions: 72 h
U2OS [13] = test: as above; conditions: 72 h
[14] = system: A549-ACE2 infected with SARS-CoV-2; test: cell count relative to DMSO; higher = less toxic; conditions: 24 h
[15] = system: A549-ACE2 infected with SARS-CoV-2; test: morphology score (similarity to uninfected cells); higher = more like uninfected cells; conditions: 24 h
HepG2 [16] = test: relative viability EC50 (midpoint between 100% and the lowest measured viability); higher = less toxic; conditions: 72 h
Vero E6 [17] = test: as above; conditions: 72 h
Calu-3 [18] = test: as above; conditions: 72 h
U2OS [19] = test: as above; conditions: 72 h
Caco-2 [20] = test: as above; conditions: 72 h

Cc1c(O)cccc1C(=O)N[C@@H](CSc1ccccc1)[C@H](O)CN1C[C@H]2CCCC[C@H]2C[C@H]1C(=O)NC(C)(C)C [nelfinavir]
Conditions	drug sensitivity score	phospholipidosis EC50 [µM]	relative viability EC50 [µM]
A549-ACE2 [7]	–	11.6	–
Caco-2 [3]	5.8	–	–
Calu-3 [4]	0	–	–
Calu-3 [18]	–	–	> 10
HepG2 [1]	1.8	–	–
HepG2 [16]	–	–	> 10
U2OS [5]	0	–	–
U2OS [19]	–	–	> 10
Vero E6 [2]	0	–	–
Vero E6 [17]	–	–	> 10

Conditions	SARS-CoV-2 infection rate, [6] [%]	cell count, [14] [%]	cell viability, Caco-2 [11] [%]	cell viability, Calu-3 [12] [%]	cell viability, HepG2 [9] [%]	cell viability, U2OS [13] [%]	cell viability, Vero E6 [10] [%]	morphology score, [15]
1 nM	–	–	104	101	107	98.2	105	–
10 nM	–	–	93.4	87.1	96.7	92.5	99.7	–
100 nM	–	–	95.1	137	89.5	96.8	88.6	–
0.3 µM	95	104	–	–	–	–	–	0.27
1000 nM	–	–	70.1	109	90.2	93.5	97.3	–
3 µM	102	96	–	–	–	–	–	0.2
10 µM	69	113	–	–	–	–	–	0.69
10000 nM	–	–	78.7	86.7	76.4	86.9	93.6	–
30 µM	10	97	–	–	–	–	–	0.42

drug-induced phospholipidosis [%], A549-ACE2 [8]
Conditions	0.3 µM	0.833333 µM	3.33333 µM	6.66667 µM	10 µM	30 µM
24 h	1.63	2.14	9.03	22.8	35.3	64.7
48 h	1.06	-2.76	10.6	21.3	40.6	–
72 h	1.29	-2.99	4.63	19.4	37	–

C#C[C@]1(O)CC[C@H]2[C@@H]3CCc4cc(OC5CCCC5)ccc4[C@H]3CC[C@@]21C [quinestrol]
Conditions	drug sensitivity score	relative viability EC50 [µM]
Caco-2 [3]	2	–
Calu-3 [4]	4.7	–
Calu-3 [18]	–	1.98
HepG2 [1]	1.3	–
HepG2 [16]	–	> 10
U2OS [5]	0	–
U2OS [19]	–	> 10
Vero E6 [2]	0	–
Vero E6 [17]	–	> 10

Conditions	SARS-CoV-2 infection rate, [6] [%]	cell count, [14] [%]	cell viability, Caco-2 [11] [%]	cell viability, Calu-3 [12] [%]	cell viability, HepG2 [9] [%]	cell viability, U2OS [13] [%]	cell viability, Vero E6 [10] [%]	morphology score, [15]
1 nM	–	–	99.4	97.9	92.1	102	98.4	–
10 nM	–	–	92.1	98.6	93.2	98.9	104	–
100 nM	–	–	98.7	99.8	88.9	104	100	–
0.3 µM	103	105	–	–	–	–	–	-0.03
1000 nM	–	–	96.5	91.1	95.5	100	104	–
3 µM	85	110	–	–	–	–	–	0.43
10 µM	41	85	–	–	–	–	–	0.68
10000 nM	–	–	67.8	41	76.6	93.8	87.4	–
30 µM	42	23	–	–	–	–	–	0.01

drug-induced phospholipidosis [%], A549-ACE2 [8]
Conditions	0.3 µM	0.833333 µM	3.33333 µM	6.66667 µM	10 µM	30 µM
24 h	11.1	13.7	17.2	16.9	13.9	23.3
48 h	12.2	17.8	21.2	25.8	23.6	37.6
72 h	8.56	16.2	19.1	27.3	29.2	–

CNC(=O)c1cc(Oc2ccc(NC(=O)Nc3ccc(Cl)c(C(F)(F)F)c3)cc2)ccn1 [sorafenib]
Conditions	drug sensitivity score	relative viability EC50 [µM]
Caco-2 [3]	2.9	–
Caco-2 [20]	–	3.04
Calu-3 [4]	0.2	–
Calu-3 [18]	–	> 10
HepG2 [1]	7.9	–
HepG2 [16]	–	1.64
U2OS [5]	2.6	–
U2OS [19]	–	3.88
Vero E6 [2]	1.7	–

Conditions	SARS-CoV-2 infection rate, [6] [%]	cell count, [14] [%]	cell viability, Caco-2 [11] [%]	cell viability, Calu-3 [12] [%]	cell viability, HepG2 [9] [%]	cell viability, U2OS [13] [%]	cell viability, Vero E6 [10] [%]	morphology score, [15]
1 nM	–	–	95.1	107	105	98.7	97.4	–
10 nM	–	–	93.2	104	113	99.1	98.9	–
0.1 µM	110	97	–	–	–	–	–	-0.27
100 nM	–	–	96.1	109	99.2	103	104	–
0.3 µM	103	101	–	–	–	–	–	-0.32
1 µM	116	92	–	–	–	–	–	-0.4
1000 nM	–	–	99.1	108	80.5	111	113	–
3 µM	103	93	–	–	–	–	–	-0.27
10000 nM	–	–	47.9	82.2	12.7	39.7	55.6	–

drug-induced phospholipidosis [%], A549-ACE2 [8]
Conditions	0.3 µM	0.833333 µM	3.33333 µM	6.66667 µM	10 µM	30 µM
24 h	-0.66	-4.32	-10.5	-0.85	-20.6	-18.5
48 h	0.68	-2.57	-3.57	0.31	–	–
72 h	3.23	-1.46	-1.25	-4.18	–	–

CC(C)n1cnc2c(NCCc3ccc(O)cc3)nc(-c3csc4ccccc34)nc21 [stemregenin-1]
Conditions	drug sensitivity score	relative viability EC50 [µM]
Caco-2 [3]	2.5	–
Calu-3 [4]	5	–
HepG2 [1]	2.3	–
U2OS [5]	1	–
U2OS [19]	–	> 10
Vero E6 [2]	0.2	–
Vero E6 [17]	–	> 10

Conditions	SARS-CoV-2 infection rate, [6] [%]	cell count, [14] [%]	cell viability, Caco-2 [11] [%]	cell viability, Calu-3 [12] [%]	cell viability, HepG2 [9] [%]	cell viability, U2OS [13] [%]	cell viability, Vero E6 [10] [%]	morphology score, [15]
1 nM	–	–	92.3	99.6	92.7	103	99.4	–
10 nM	–	–	104	109	91.9	101	101	–
100 nM	–	–	87.3	101	97.4	95.1	104	–
0.3 µM	93	101	–	–	–	–	–	0.34
1000 nM	–	–	99.3	80.4	91.6	96.3	100	–
3 µM	84	103	–	–	–	–	–	0.46
10 µM	60	117	–	–	–	–	–	0.84
10000 nM	–	–	54	54.3	70.7	80.7	85.7	–
30 µM	26	45	–	–	–	–	–	0

drug-induced phospholipidosis [%], A549-ACE2 [8]
Conditions	0.3 µM	0.833333 µM	3.33333 µM	6.66667 µM	10 µM	30 µM
24 h	6.01	1.64	8.25	15.8	28.5	16.7
48 h	9.44	5.9	8.13	14.7	21.9	–
72 h	7.3	7.32	13.4	21.2	27	–

Cc1nn(C)c2c1C(c1cccc(Cl)c1)=NCCN2 [zometapine]
Conditions	drug sensitivity score	relative viability EC50 [µM]
Caco-2 [3]	0	–
Caco-2 [20]	–	> 10
Calu-3 [4]	0	–
Calu-3 [18]	–	> 10
HepG2 [1]	0	–
HepG2 [16]	–	> 10
U2OS [5]	0	–
U2OS [19]	–	> 10
Vero E6 [2]	0	–
Vero E6 [17]	–	> 10

cell viability [%]
Conditions	Caco-2 [11]	Calu-3 [12]	HepG2 [9]	U2OS [13]	Vero E6 [10]
1 nM	95.7	102	93.3	95.6	104
10 nM	86.7	104	105	105	105
100 nM	82.4	99.8	99.9	98.4	98
1000 nM	117	101	106	102	97.8
10000 nM	105	98.2	89	96.9	95.1
